From ChEMBL document CHEMBL6087476, “Positive Charge-Concentrated Dimeric Lipopeptides with Enhanced Protease Resistance: A Potential Solution for Systemic Bacterial Infections” (J Med Chem, 2025) come the findings set out here.

In one data set the test system is HEK-293T. Kind of data set: Cytotoxicity against human HEK293T cells assessed as cell death measured after 18 to 24 hrs by MTT assay. The format is functional. The following applies: time 18-24 hrs. A general note: Tetrazolium assays rely on reduction of a dye to a coloured formazan, in cell work by metabolically active cells.
Data set [1] is described as follows: Cytotoxicity against porcine IPEC-J2 cells assessed as cell death measured after 18 to 24 hrs by MTT assay. The class given is functional. The following applies: Sus scrofa, time 18-24 hrs.
The subject of data set [2] is Escherichia coli. Kind of data set: Antimicrobial activity against Escherichia coli K99 assessed as increase in absorbance incubated for 20 to 22 hrs. The class given is functional. Conditions: time 20-22 hrs.
Data set [3] in a line: Hemolytic activity in healthy human RBC assessed as hemolysis incubated for 1 hr by microplate reader. The format is toxicity, cell-based. Conditions: erythrocyte.
Another data set has as its system Pseudomonas aeruginosa. As to the kind of experiment: Antimicrobial activity against Pseudomonas aeruginosa 27853 assessed as increase in absorbance incubated for 20 to 22 hrs. Conditions: time 20-22 hrs. The class given is functional.
In a further data set the test system is RAW264.7. As to the kind of experiment: Cytotoxicity against mouse RAW264.7 cells assessed as cell death measured after 18 to 24 hrs by MTT assay. Conditions: time 18-24 hrs. The class given is functional.
In the next data set the test system is Enterococcus faecalis. Kind of data set: Antimicrobial activity against Enterococcus faecalis 29212 assessed as increase in absorbance incubated for 20 to 22 hrs. The class given is functional. Conditions: time 20-22 hrs.
In data set [4] the test system is Staphylococcus aureus. As to the kind of experiment: Antimicrobial activity against Staphylococcus aureus 25923 assessed as increase in absorbance incubated for 20 to 22 hrs. The format is functional. Conditions: time 20-22 hrs.
Data set [5] has as its system Escherichia coli. Kind of data set: Antimicrobial activity against Escherichia coli ATCC 25922 assessed as increase in absorbance incubated for 20 to 22 hrs. The format is functional. The following applies: time 20-22 hrs.
Data set [6] has as its system Staphylococcus aureus. As to the kind of experiment: Antimicrobial activity against methicillin-resistant Staphylococcus aureus 43300 assessed as increase in absorbance incubated for 20 to 22 hrs. The format is functional. Conditions: time 20-22 hrs.
The test system of data set [7] is Salmonella typhimurium. As to the kind of experiment: Antimicrobial activity against Salmonella typhimurium 7731 assessed as increase in absorbance incubated for 20 to 22 hrs. The class given is functional, Salmonella enterica subsp. enterica serovar Typhimurium. Conditions: Salmonella enterica, time 20-22 hrs.
Data set [8] concerns Staphylococcus aureus. Kind of data set: Antimicrobial activity against Staphylococcus aureus 29213 assessed as increase in absorbance incubated for 20 to 22 hrs. The class given is functional. Conditions: time 20-22 hrs.
The test system of data set [9] is Escherichia coli. As to the kind of experiment: Antimicrobial activity against Escherichia coli K88 assessed as increase in absorbance incubated for 20 to 22 hrs. The class given is functional. The following applies: time 20-22 hrs.
In data set [10] the test system is Staphylococcus epidermidis. As to the kind of experiment: Antimicrobial activity against Staphylococcus epidermidis 12228 assessed as increase in absorbance incubated for 20 to 22 hrs. The class given is functional. The following applies: time 20-22 hrs.
Data set [11] has as its system Salmonella typhimurium. Kind of data set: Antimicrobial activity against Salmonella typhimurium 14028 assessed as increase in absorbance incubated for 20 to 22 hrs. The class given is functional, Salmonella enterica subsp. enterica serovar Typhimurium. The following applies: Salmonella enterica, time 20-22 hrs.

Molecules are shown by their SMILES. Values after ≈ are worked out from the molar mass of the structure shown.

A word on the IC10: it is the concentration needed for an effect of 10%. A word on the MIC: it is the smallest concentration in the dilution series that meets the test's criterion for growth inhibition. With `CCCCCCCCCC(=O)NCCCC[C@H](NC(=O)[C@@H](N)CS)C(=O)NCC(=O)NCC(=O)NCC(=O)N[C@H](CCCNC(=N)N)C(=O)N[C@@H](CCCNC(=N)N)C(=O)N[C@@H](CCCNC(=N)N)C(=O)N1CCC[C@H]1C(=O)O`, the concentration for an effect of 10% (IC10) (with HEK-293T; in [1]; with RAW264.7) was 256 µM throughout. In addition, the minimal inhibitory concentration (MIC) in the data set on Escherichia coli [2] stood at 32 µM (≈ 36.5 µg/mL); in the data set on Pseudomonas aeruginosa it was 16 µM (≈ 18.2 µg/mL); with Enterococcus faecalis, 64 µM (≈ 73 µg/mL); with Staphylococcus aureus [4] it was 64 µM (≈ 73 µg/mL); with Escherichia coli [5], 32 µM (≈ 36.5 µg/mL); in the data set on Staphylococcus aureus [6] it was 64 µM (≈ 73 µg/mL). Further, the minimum inhibitory concentration (MIC) was determined as 64 µM (≈ 73 µg/mL) with Salmonella typhimurium [7]; 64 µM (≈ 73 µg/mL) in the data set with Staphylococcus aureus [8]; 32 µM (≈ 36.5 µg/mL) with Escherichia coli [9]; 128 µM (≈ 146 µg/mL) in data set [10]; 32 µM (≈ 36.5 µg/mL) in the data set on Salmonella typhimurium [11]. For the same molecule, the HC10 in data set [3] worked out at 256 µM.

With `CCCCCCCC(=O)NCCCC[C@H](NC(=O)[C@@H](N)CS)C(=O)NCC(=O)NCC(=O)NCC(=O)N[C@H](CCCNC(=N)N)C(=O)N[C@@H](CCCNC(=N)N)C(=O)N[C@@H](CCCNC(=N)N)C(=O)N1CCC[C@H]1C(=O)O`, the IC10 (in the data set with HEK-293T; in [1]; with RAW264.7) was 256 µM each time. Also, the MIC in the data set on Escherichia coli [2] stood at 128 µM (≈ 142 µg/mL); in the data set on Pseudomonas aeruginosa it was 64 µM (≈ 71.2 µg/mL); in the data set on Enterococcus faecalis, 128 µM (≈ 142 µg/mL); with Staphylococcus aureus [4], 128 µM (≈ 142 µg/mL); with Escherichia coli [5], 64 µM (≈ 71.2 µg/mL); in the data set on Staphylococcus aureus [6], 128 µM (≈ 142 µg/mL). In addition, the minimum inhibitory concentration (MIC) in the data set with Salmonella typhimurium [7] amounted to 128 µM (≈ 142 µg/mL); in the data set with Staphylococcus aureus [8] it was 128 µM (≈ 142 µg/mL); in the data set with Escherichia coli [9], 64 µM (≈ 71.2 µg/mL); in data set [10], 128 µM (≈ 142 µg/mL); in the data set on Salmonella typhimurium [11] it was 128 µM (≈ 142 µg/mL). The HC10 in data set [3] came to 256 µM.

On to `CCCCCCCCCCCC(=O)NCCCC[C@H](N)C(=O)NCC(=O)NCC(=O)NCC(=O)N[C@H](CCCNC(=N)N)C(=O)N[C@@H](CCCNC(=N)N)C(=O)N[C@@H](CCCNC(=N)N)C(=O)N1CCC[C@H]1C(=O)N[C@@H](CS)C(=O)O`, for which the IC10 in the data set with HEK-293T was found to be 128 µM; in data set [1], 32 µM; in the data set with RAW264.7, 64 µM. Moreover, the minimal inhibitory concentration (MIC) amounted to 32 µM (≈ 37.4 µg/mL) with Escherichia coli [2]; 16 µM (≈ 18.7 µg/mL) in the data set with Pseudomonas aeruginosa; 32 µM (≈ 37.4 µg/mL) in the data set on Enterococcus faecalis; 64 µM (≈ 74.8 µg/mL) in the data set with Staphylococcus aureus [4]; 16 µM (≈ 18.7 µg/mL) with Escherichia coli [5]; 64 µM (≈ 74.8 µg/mL) in the data set on Staphylococcus aureus [6]. Besides, the minimal inhibitory concentration (MIC) in the data set on Salmonella typhimurium [7] is 32 µM (≈ 37.4 µg/mL); with Staphylococcus aureus [8] it was 64 µM (≈ 74.8 µg/mL); in the data set with Escherichia coli [9], 32 µM (≈ 37.4 µg/mL); in data set [10], 64 µM (≈ 74.8 µg/mL); with Salmonella typhimurium [11], 64 µM (≈ 74.8 µg/mL). For the same molecule, in data set [3], the HC10 stood at 64 µM.

Turning to `CCCCCCCC(=O)NCCCC[C@H](N)C(=O)NCC(=O)NCC(=O)NCC(=O)N[C@H](CCCNC(=N)N)C(=O)N[C@@H](CCCNC(=N)N)C(=O)N[C@@H](CCCNC(=N)N)C(=O)N1CCC[C@H]1C(=O)N[C@@H](CSSC[C@H](NC(=O)[C@@H]1CCCN1C(=O)[C@H](CCCNC(=N)N)NC(=O)[C@H](CCCNC(=N)N)NC(=O)[C@@H](CCCNC(=N)N)NC(=O)CNC(=O)CNC(=O)CNC(=O)[C@@H](N)CCCCNC(=O)CCCCCCC)C(=O)O)C(=O)O`, the IC10 (with HEK-293T; in data set [1]; in the data set on RAW264.7) was 256 µM throughout. Moreover, the MIC was 4 µM (≈ 8.89 µg/mL) in the data set on Escherichia coli [2]; 4 µM (≈ 8.89 µg/mL) in the data set on Pseudomonas aeruginosa; 64 µM (≈ 142 µg/mL) in the data set on Enterococcus faecalis; 32 µM (≈ 71.1 µg/mL) in the data set on Staphylococcus aureus [4]; 2 µM (≈ 4.45 µg/mL) with Escherichia coli [5]; 32 µM (≈ 71.1 µg/mL) with Staphylococcus aureus [6]. Also, the minimum inhibitory concentration (MIC) was found to be 4 µM (≈ 8.89 µg/mL) with Salmonella typhimurium [7]; 32 µM (≈ 71.1 µg/mL) in the data set on Staphylococcus aureus [8]; 4 µM (≈ 8.89 µg/mL) with Escherichia coli [9]; 64 µM (≈ 142 µg/mL) in data set [10]; 4 µM (≈ 8.89 µg/mL) with Salmonella typhimurium [11]. The HC10 in data set [3] is 256 µM.

As for `CCCCCCCCCCCC(=O)NCCCC[C@H](NC(=O)[C@@H](N)CSSC[C@H](N)C(=O)N[C@@H](CCCCNC(=O)CCCCCCCCCCC)C(=O)NCC(=O)NCC(=O)NCC(=O)N[C@H](CCCNC(=N)N)C(=O)N[C@@H](CCCNC(=N)N)C(=O)N[C@@H](CCCNC(=N)N)C(=O)N1CCC[C@H]1C(=O)O)C(=O)NCC(=O)NCC(=O)NCC(=O)N[C@H](CCCNC(=N)N)C(=O)N[C@@H](CCCNC(=N)N)C(=O)N[C@@H](CCCNC(=N)N)C(=O)N1CCC[C@H]1C(=O)O`, the IC10 (in the data set with HEK-293T; in data set [1]; in the data set with RAW264.7) was 128 µM each time. The minimal inhibitory concentration (MIC) is 32 µM (≈ 74.7 µg/mL) with Escherichia coli [2]; 8 µM (≈ 18.7 µg/mL) in the data set on Pseudomonas aeruginosa; 16 µM (≈ 37.4 µg/mL) with Enterococcus faecalis; 32 µM (≈ 74.7 µg/mL) in the data set with Staphylococcus aureus [4]; 4 µM (≈ 9.34 µg/mL) in the data set on Escherichia coli [5]; 18 µM (≈ 42 µg/mL) in the data set with Staphylococcus aureus [6]. Besides, the MIC with Salmonella typhimurium [7] stood at 32 µM (≈ 74.7 µg/mL); with Staphylococcus aureus [8], 16 µM (≈ 37.4 µg/mL); in the data set with Escherichia coli [9] it was 16 µM (≈ 37.4 µg/mL); in data set [10], 16 µM (≈ 37.4 µg/mL); with Salmonella typhimurium [11], 16 µM (≈ 37.4 µg/mL). In addition, the HC10 in [3] was found to be 128 µM.
